The source of these data is patent publication US8536160B2, “Azaheterocyclyl derivatives of androstanes and androstenes as medicaments for cardiovascular disorders” (priority 2006, dated 2013).

Where a name gives a salt, the structure may show the parent alone. Read-outs that look alike come from different tables or passages of the source.

Data set [1] concerns the target Dog Kidney Na+, K+-ATPase (Canis lupus familiaris, UniProt P50997). In words: Inhibition of the enzymatic activity of purified Na+,K+-ATPase (hydrolysis of 32P-ATP). The data set is classed as biochemical.
The next data set deals with anesthetized guinea-pig. In words: Inotropic effect and lethal dose, slow intravenous infusion in anesthetized guinea-pig. The data set is classed as in vivo. The arrangement: Maximum dose infused: unit not given here. The settings on record: for Emax / ED80 / ED (max): Cavia porcellus, iv, 1.5 h; for Emax: maximum increase in contractile force, read-out: Emax % increase in +dP/dTmax; for ED80: read-out: ED80 (inotropic potency, dose increasing +dP/dTmax by 80%); for ED (max): read-out: EDmax (dose inducing maximum positive inotropic effect); for % decrease from Emax after 20 min from the end of the infusion: duration of the inotropic effect; for Maximum dose infused: maximum dose infused in the survived animals.

Setting [2] is: read-out: Na+, K+-ATPase Inhibition IC50.
Setting [3] is: dog kidney enzyme, hydrolysis of 32P-ATP in presence and absence of compound, read-out: Na+, K+-ATPase Inhibition IC50.
Setting [4] is: slow i.v. infusion over 90 minutes, anesthetized guinea-pig.
Where [5] appears, read: slow i.v. infusion over 90 minutes.

Description for anesthetized guinea-pig: The inotropic activity is shown as maximum increase in contractile force (Emax measured as +dP/dTmax), dose inducing maximum positive inotropic effect (EDmax), inotropic potency (ED80, dose increasing +dP/dTmax by 80%); the toxicity, as the ratio between lethal dose and inotropic potency, or safety ratio, (calculated for the died animals); the maximum dose infused in the survived animals; the duration of the inotropic effect as the decrease of the effect from the EDmax measured 20 minutes after the end of the infusion.

A word on the IC50: it is the concentration needed to halve the response being measured. As to “3α-[2-(Azetidin-3-yl)-(Z)-vinyl]androstane-6,7-dione formate [I-dh]”, the IC50 in data set [1] (setting [2]) came to 830 nM. Still for that read-out and setting: for “3α-[2-(Pyrrolidin-3-(R)-yl)-(Z)-vinyl]androstane-6,7-dione formate [I-df]” the value was 360 nM. Same read-out and setting: the value for “3β-(2(R,S)-Morpholinylcarbonyloxy)androstane-6,7-dione fumarate [I-cz]” was 12000 nM. As for “3β-(2-(R,S)-piperazinylcarbonyloxy)androstane-6,7-dione dihydrochloride [I-da]”, the IC50 in data set [1] (setting [2]) amounted to 68000 nM. Regarding “3β-(3-(R,S)-Piperidinylcarbonyloxy)androstane-6,7-dione hydrochloride [I-cv]”, the IC50 in data set [1] (setting [2]) amounted to 92000 nM. `CC12CCC3C(CC(=O)C4CC(=NOC5CNC5)CCC43C)C1CCC2=O` (mixture of isomers) [I-ab] came in with an IC50 in data set [1] (Na+, K+-ATPase Inhibition IC50) of 260 nM. Still for that read-out and setting: the value for `C[C@]12CC/C(=N\OC3CCNC3)CC1C(=O)C[C@@H]1[C@@H]2CC[C@]2(C)C(=O)CC[C@@H]12` (mixture of isomers) [I-ac, (E) 3-[3-(RS)-Pyrrolidinyl]oxyiminoandrostane-6,17-dione hydrochloride] was 110 nM. Take `CC12CCC3C(CC(=O)C4CC(=NOCC5CCCN5)CCC43C)C1CCC2=O` (mixture of isomers) [I-ah, hydrochloride]: in data set [1] (Na+, K+-ATPase Inhibition IC50), the midpoint of inhibition, the IC50, lay at 23000 nM. The same measure, in the same setting: the value for `CC12CCC3C(CC(=O)C4CC(=NOCC5CCCN5)CCC43C)C1CCC2=O` (mixture of isomers) [I-ai, hydrochloride] was 11000 nM. The same measure, in the same setting: the value for `CC12CCC3C(CC(=O)C4CC(=NOC5CCCNC5)CCC43C)C1CCC2=O` (mixture of isomers) [I-aj, (E) 3-[3′-(R,S)-Piperidinyl]oxyiminoandrostane-6,7-dione hydrochloride] was 33000 nM. As to `CC12CCC3C(CC(O[N+](=O)[O-])C4CC(=NOC5CCNC5)CCC43C)C1CCC2=O` (mixture of isomers) [I-ap, (E,Z) 3-[3-(R)-Pyrrolidinyl]oxyimino-17-oxoandrostane-6α-yl nitrate hydrochloride], in data set [1] (setting [3]), the IC50 amounted to 380 nM. `C=C1CC2C3CCC(=O)C3(C)CCC2C2(C)CCC(=NOC3CCNC3)CC12` (mixture of isomers) [I-aq, (E,Z) 3-[3-(R)-Pyrrolidinyl]oxyimino-6-methyleneandrostane-17-one hydrochloride] showed an IC50 in data set [1] (Na+, K+-ATPase Inhibition IC50) of 46 nM. `CC12CCC3C(CC(CO)C4CC(=NOC5CCNC5)CCC43C)C1CCC2=O` (mixture of isomers) [I-ar, (E,Z) 3-[3-(R)-Pyrrolidinyl]oxyimino-6α-hydroxymethylandrostan-17-one hydrochloride]: the IC50 in data set [1] (setting [3]) worked out at 26 nM.

As to `COCC1CC2C3CCC(=O)C3(C)CCC2C2(C)CCC(=NOC3CCNC3)CC12` (mixture of isomers) [I-as, (E,Z) 3-[3-(R)-Pyrrolidinyl]oxyimino-6α-methoxymethylandrostane-17-one hydrochloride], the IC50 in data set [1] (setting [3]) was 320 nM. For `CC12CCC3C(CC(=NO)C4CC(=NOC5CCNC5)CCC43C)C1CCC2=O` (mixture of isomers) [I-av, (E,Z) 3-[3-(R)-Pyrrolidinyl]oxyimino-6(E)-hydroxyiminoandrostan-17-one hydrochloride], in the data set with anesthetized guinea-pig (setting [4]), the Emax came out at 144%, the ED80 came out at 1.49 µmol/kg, the ED (max) came out at 4.3 µmol/kg and the Dead/treated is recorded as 0/3. The “% decrease from Emax after 20 min from the end of the infusion” value in the data set on anesthetized guinea-pig (anesthetized guinea-pig) is given as 100%. The compound also displayed a Maximum dose infused in the data set on anesthetized guinea-pig (setting [5]) of 6.3. On to `CC12CCC3C(CC(NC=O)C4CC(=NOC5CCNC5)CCC43C)C1CCC2=O` (mixture of isomers) [I-ay, (E,Z) 3-[3-(R)-Pyrrolidinyl]oxyimino-6α-formamidoandrostane-17-one hydrochloride], for which the IC50 in data set [1] (setting [3]) was determined as 41 nM. Consider `CC12CCC3C(CC4(CC4)C4CC(=NOC5CCNC5)CCC34C)C1CCC2=O` (mixture of isomers) [I-ba, (Z,E) 3-(3-(R)-Pyrrolidinyloxyimino)-6-(spirocyclopropane)androstane-17-one hydrochloride], for which, in data set [1] (setting [3]), the IC50 turned out to be 220 nM. Same read-out and setting: the value for `CON=C1CC2C3CCC(=O)C3(C)CCC2C2(C)CCC(=NOC3CCN(C)C3)CC12` (mixture of isomers) [I-bf, (E,Z) 3-[3′-(S)-(1-Methyl)pyrrolidinyl]oxyimino-6-(E)-methoxyimino-androstane-17-one hydrochloride] was 7600 nM; that for `CON=C1CC2C3CCC(=O)C3(C)CCC2C2(C)CCC(=NOC3CCN(C)C3)CC12` (mixture of isomers) [I-bg, (E,Z) 3-[3′-(R)-(1-Methyl)pyrrolidinyl]oxyimino-(E)-6-methoxyiminoandrostane-17-one hydrochloride] was 5700 nM. `C[C@]12CC[C@H]3[C@@H](C/C(=N\O)[C@@]4(O)CC(=NO[C@H]5CCNC5)CC[C@]34C)[C@@H]1CCC2=O` (mixture of isomers) [I-bq, (E,Z) 3-[3-(S)-Pyrrolidinyl]oxyimino-5α-hydroxy-6-(E)-hydroxyiminoandrostane-17-one hydrochloride]: in the data set on anesthetized guinea-pig (setting [4]), the Emax was determined as 380%, the ED80 is 0.59 µmol/kg and the ED (max) was determined as 3.72 µmol/kg. The same compound yielded a Maximum dose infused in the data set on anesthetized guinea-pig (setting [5]) of 18.7. In the case of `CON=C1CC2CC(=NOC3CCNC3)CCC2(C)C2CCC3(C)C(=O)CCC3C12` (mixture of isomers) [I-ce, (E,Z) 3-[3-(R)-Pyrrolidinyl]oxyimino-7(E)-methoxyiminoandrostan-17-one fumarate], the IC50 in data set [1] (setting [3]) was 3000 nM.

Take `C=CCON=C1CC2CC(=NOC3CCNC3)CCC2(C)C2CCC3(C)C(=O)CCC3C12` (mixture of isomers) [I-cf, (E,Z) 3-[3′-(R)-Pyrrolidinyl]oxyimino-7-(E)-allyloxyiminoandrostane-17-one fumarate]: in data set [1] (setting [3]), the IC50 is 4000 nM. Same read-out and setting: for `CC12CCC3C(C(CO)CC4CC(=NOC5CCNC5)CCC43C)C1CCC2=O` (mixture of isomers) [I-ch, (E,Z) 3-[3′-(R)-Pyrrolidinyl]oxyimino-7α-hydroxymethylandrostane-17-one hydrochloride] the value was 160 nM; for `CC12CCC3C(C(CO)CC4CC(=NOC5CCNC5)CCC43C)C1CCC2=O` (mixture of isomers) [I-ci, (E,Z) 3-[3′-(R)-Pyrrolidinyl]oxyimino-7β-hydroxymethylandrostane-17-one hydrochloride], 330 nM. `CC12CCC3C(C1CCC2=O)C1(CC1)CC1CC(=NOC2CCNC2)CCC13C` (mixture of isomers) [I-co, (Z,E) 3-(3′-(R)-Pyrrolidinyloxyimino)-7-(spirocyclopropane)androstane-17-one hydrochloride] had an IC50 in data set [1] (Na+, K+-ATPase Inhibition IC50) of 24 nM. As to `CC12CCC3C(C(NC=O)CC4CC(=NOC5CCNC5)CCC43C)C1CCC2=O` (mixture of isomers) [I-cp, (E,Z) 3-[3′-(R)-Pyrrolidinyl]oxyimino-7α-formamidoandrostane-17-one hydrochloride], the IC50 in data set [1] (setting [3]) amounted to 4600 nM.

As to `CN1CCC(ON=C2CCC3(C)C(C2)C(CO)C(=O)C2C4CCC(=O)C4(C)CCC23)C1` (mixture of isomers) [I-ct, (E,Z) 3-[3′-(R)-(1-Methyl)pyrrolidinyl]oxyimino-6α-hydroxymethylandrostane-7,17-dione fumarate], the IC50 in data set [1] (setting [3]) came out at 270 nM.

Compound `CC12CCC3C(CC(=O)C4CC(OC(=O)C5CCNC5)CCC43C)C1CCC2=O` (mixture of isomers) [I-cy, 3β-(3(R,S)-Pirrolidinylcarbonyloxy)androstane-6,17-dione fumarate] had an IC50 in data set [1] (Na+, K+-ATPase Inhibition IC50) of 4200 nM. With `C[C@]12CC[C@@H](SC3CCNC3)CC1C(=O)C[C@@H]1[C@@H]2CC[C@]2(C)C(=O)CC[C@@H]12` (mixture of isomers) [I-dc, 3α-[3-(RS)-Pyrrolidinylthio]androstane-6,17-dione fumarate], the IC50 in data set [1] (setting [2]) worked out at 95000 nM. On to `COCC1CC2CC(=NOC3CCNC3)CCC2(C)C2CCC3(C)C(=O)CCC3C12` (mixture of isomers) [I-dm, (E,Z) 3-[3-(R)-Pyrrolidinyl]oxyimino-7α-methoxymethylandrostane-17-one hydrochloride], for which the 50% inhibitory concentration (IC50) in data set [1] (setting [3]) came to 8100 nM. Still for that read-out and setting: the value for `COC1CC2CC(=NOC3CCNC3)CCC2(C)C2CCC3(C)C(=O)CCC3C12` (mixture of isomers) [I-dn, (E,Z) 3-[3-(R)-Pyrrolidinyl]oxyimino-7α-methoxyandrostane-17-one fumarate] was 5900 nM. On to `CC12CCC3C(CC(O)C4CC(=NOC5CCNC5)CCC43C)C1CCC2O` (mixture of isomers) [I-do, (E,Z) 3-[3-(R)-Pyrrolidinyl]oxyiminoandrostane-6α,17β-diol hydrochloride], for which half-maximal inhibition in data set [1] (Na+, K+-ATPase Inhibition IC50) (IC50) was put at 490 nM. The same measure, in the same setting: for `C=C1CC2C3CCC(=O)C3(C)CCC2C2(C)CCC(=NOC3CCNC3)CC12O` (racemic) [I-bk, (E,Z) 3-[3′-(S)-Pyrrolidinyl]oxyimino-5α-hydroxy-6-methylene-androstane-17-one fumarate] the value was 480 nM; for `CC12CCC3C(CC(=O)C4CC(=NOC5CCNC5)CCC43C)C1CCC2=O` (single isomer, unassigned) [I-ad, hydrochloride], 830 nM. `C[C@H]1O[C@@H](O[C@H]2[C@@H](O)C[C@H](O[C@H]3[C@@H](O)C[C@H](O[C@H]4CC[C@@]5(C)[C@H](CC[C@@H]6[C@@H]5C[C@@H](O)[C@]5(C)[C@@H](C7=CC(=O)OC7)CC[C@]65O)C4)O[C@@H]3C)O[C@@H]2C)C[C@H](O)[C@@H]1O` [digoxin, reference compound]: in the data set with anesthetized guinea-pig (setting [4]), the Emax turned out to be 158%, the ED80 amounted to 0.29 µmol/kg and the ED (max) was determined as 0.65 µmol/kg. Also, the “% decrease from Emax after 20 min from the end of the infusion” value in the data set on anesthetized guinea-pig (anesthetized guinea-pig) stood at 100%. The compound also had a Maximum dose infused in the data set with anesthetized guinea-pig (setting [5]) of 1.16.
